Laboratory results: publication PMC10788915, “Fragment Merging, Growing, and Linking Identify New Trypanothione Reductase Inhibitors for Leishmaniasis” (Journal of Medicinal Chemistry, 2024)
Like-named read-outs stand apart in the source and are kept apart here.

Assays:
[1] = system: primary murine macrophages; test: Cytotoxicity assay on primary murine macrophages (MTT); type: cell-based, Balb/c mice; conditions: Balb/c peritoneal macrophages, 72 h, read-out: primary murine macrophage CC50 ± SE (95% CI)
Method: (§1) To assess the cytotoxicity of compounds on mammalian macrophages, we tested all the compounds against both human leukemia monocyte cell line (THP-1 cells, ATCC) differentiated into macrophages by treatment with 40 ng/mL of phorbol myristate acetate (PMA; Sigma) for 48 h and peritoneal exudate macrophages harvested from Balb/c mice. […] Cell viability was evaluated using the MTT assay, and the concentration of the compound that produced a 50% reduction of cell viability in treated culture cells with respect to untreated ones (CC50) was determined by GraphPad Prism 5.0 (GraphPad Software Inc., San Diego, USA). […] The selectivity index for each compound was calculated as the ratio of cytotoxicity (CC50) in macrophages cells to activity (IC50) against Leishmania axenic amastigotes. The experiments were performed in triplicate, and two independent experiments were conducted.

[2] = system: L. infantum axenic amastigotes; test: In vitro inhibition of axenic amastigote growth (MTT); type: cell-based, Leishmania infantum; conditions: 72 h, read-out: axenic amastigote EC50 ± SE (95% CI)
Method: Axenic amastigote growth inhibition was evaluated using L. infantum strain (MHOM/TN/80/IPT1, WHO international reference strain). Axenic amastigote cultures were obtained as described previously with modifications.[45] Promastigotes were grown in Schneider’s Drosophila medium (SIGMA) containing 10% heat-inactivated fetal calf serum (FCS)(GIBCO-BRL) and 2% gentamicin (50 mg/L)(Sigma) in 25 cm^2 flasks at 22 °C. After 4–5 days, the parasites were adjusted to 1 × 10^6 parasites/mL in axenic medium MAA/20 consisting of modified medium 199 (Gibco BRL) with Hanks’ salts supplemented with 0.5% tryptic soy broth (Sigma), 0.01 mM bathocuproine disulfonic acid, 3 mM L-cysteine, 15 mM D-glucose, 5 mM L-glutamine, 4 mM NaHCO3, 0.023 mM bovine hemin, and 25 mM HEPES to a final pH of 6.5 and supplemented with 20% pretested FCS, and axenic amastigotes were obtained by shifting the incubation conditions: 198 μL of suspension was seeded in triplicate in 96-well flat bottom microplates and incubated at 37 °C, 5% CO2 for 48 h in order to allow the axenization. The amastigote cells were visualized under the light microscope to confirm transformation. Then, 2 μL of the selected compounds with varying concentrations were added: 100, 50, 25, 12.5, 6.25, 3.12, 1.56, 0.8, 0.4, 0.2, 0.1, 0.05 μM. […] Each experiment was conducted in triplicate for each drug concentration, and three independent experiments were performed. To estimate the 50% inhibitory concentration (IC50), the (3-[4.5-dimethylthiazol-2-yl]-2.5-diphenyltetrazolium bromide) (MTT) micromethod was used throughout the experiments with modification. After 72 h of incubation, 30 μL of MTT was added to each well, and the plates were further incubated for 3 h. The absorbance at 550 nm was measured with a 96-well scanner. Antileishmanial activity was expressed as the percentage of inhibition in the number of live parasites compared to that in the control (nontreated parasites). % inhibition was calculated as follows: % growth inhibition = [(absorb cell with drug × 100)/absorb cell control] – 100. Results were analyzed by GraphPad Prism 5.0, dose–response curves were obtained and IC50 deduced (GraphPad Software Inc., San Diego, USA).

[3] = biological target: T1, Leishmania infantum TR (LiTR) (Leishmania infantum, UniProt A4HSF7); test: LiTR enzymatic inhibition assay (NADPH oxidation at 340 nm); type: biochemical; conditions: for LiTR residual activity % / remaining activity at 100 µM / remaining activity at 10 µM: mean ± SD, n = 3; for remaining activity at 100 µM / remaining activity at 10 µM: read-out: LiTR residual activity %; for IC50: 50 nM LiTR, 150 μM trypanothione, 100 μM NADPH, 25 °C
T1 construct: The TbTR and LiTR genes were subcloned in a pET28b vector; 6-His (cleaved yes); made in house; host or cells: E. coli BL21(DE3), pET28b
Method: (§2) Enzymatic inhibition assays were performed in 50 mM HEPES pH 7.4, 40 mM NaCl at 25 °C using a JASCO V650 spectrophotometer equipped with a JASCO EHC 716 Peltier element to ensure controlled temperature. The first experiment was carried out using 50 nM LiTR, 10 or 100 μM compound to be tested, 150 μM trypanothione (trypanothione disulfide purchased from Bachem), and 100 μM NADPH (tetrasodium salt, purchased from Calbiochem). The best inhibitor candidates were then tested at concentrations ranging from 1 nM to 250 μM to determine the IC50. Assays were initiated upon addition of 100 μM NADPH to 50 nM LiTR or hGR (human glutathione reductase purchased from Sigma-Aldrich) in the presence of different concentration of compounds and 150 μM trypanothione. For both experiments, the oxidation of NADPH was followed as a decrease in absorbance at 340 nm. For each concentration of compound, the initial velocity of the NADPH oxidation was used to determine the percentage of LiTR activity with respect to that in the absence of any compound. The IC50 was determined upon fitting the residual activity of TR as a dose–response logistic equation defined as ymin + (ymax – ymin)/(1 + (x/IC50)^slope). […] The Ki was determined graphically upon linear fitting of data points for each trypanothione concentration. Data analysis was performed with QtiPlot 0.9.8.9 svn 2288, and graphs were made with Matplotlib.
(§3) Figure S3. Inhibition assay of LiTR (red) and hGR (grey) with compounds 5-6, 9-10 and 14.
(§4) Enzymatic assays were carried out at 25°C on a JASCO V650 spectrophotometer equipped with a JASCO EHC716 Peltier unit. Compound concentrations used during the experiments range from 1 […]
(§5) higher than 30 µM and 20 µM, respectively. Briefly, 50 nM LiTR or hGR (Sigma Aldrich) were mixed in 50 mM HEPES pH 7.4, 40 mM NaCl with each compound and 150 µM trypanothione or glutathione. After 3-minute incubation at 25°C, the measurement was initiated upon addition of 100 µM NADPH. The oxidation of NADPH was followed as a decrease in absorbance at 340 nm. Each initial velocity of LiTR enzymatic reaction with the compounds was expressed as a percentage of residual activity with respect to that in the absence of compound. Each data point is the mean of two measurements. The IC50 was determined upon fitting the data as a dose response logistic equation defined by the Kaleidagraph software as ymin+(ymax-ymin)/(1+(x/IC50)^slope).
(§6) (1 picture or pasted object on this page, not shown here)

[4] = system: human THP-1-derived macrophages; test: Cytotoxicity assay on human THP-1-derived macrophages (MTT); type: cell-based; conditions: for CC50: 72 h, MTT, read-out: human THP-1-derived macrophage CC50 ± SE (95% CI)
Method: as §1

[5] = Cytotoxicity assay on primary murine macrophages (MTT); type: cell-based, Balb/c mice; conditions: Balb/c, mouse, primary peritoneal exudate macrophages, read-out: primary murine macrophage CC50 ± SE (95% CI)
Method: as §1

[6] = Cytotoxicity assay on human THP-1-derived macrophages (MTT); type: cell-based; conditions: human, THP-1 cells differentiated into macrophages with PMA, 72 h, MTT; read-out: human THP-1-derived macrophage CC50 ± SE (95% CI)
Method: as §1

[7] = Solubility observed in the enzymatic assay; type: physicochemical; conditions: no reliable data at concentrations higher than 30 µM (5) and 20 µM (6)
Method: as §3, §4, §5, §6

[8] = biological target: T2, hGR (human glutathione reductase) (Homo sapiens, UniProt P00390); test: hGR enzymatic inhibition assay (NADPH oxidation at 340 nm); type: biochemical; conditions: for IC50: 50 nM hGR, 100 μM NADPH, 25 °C
T2 construct: purchased Sigma-Aldrich
T2 sequence (P00390 44-522): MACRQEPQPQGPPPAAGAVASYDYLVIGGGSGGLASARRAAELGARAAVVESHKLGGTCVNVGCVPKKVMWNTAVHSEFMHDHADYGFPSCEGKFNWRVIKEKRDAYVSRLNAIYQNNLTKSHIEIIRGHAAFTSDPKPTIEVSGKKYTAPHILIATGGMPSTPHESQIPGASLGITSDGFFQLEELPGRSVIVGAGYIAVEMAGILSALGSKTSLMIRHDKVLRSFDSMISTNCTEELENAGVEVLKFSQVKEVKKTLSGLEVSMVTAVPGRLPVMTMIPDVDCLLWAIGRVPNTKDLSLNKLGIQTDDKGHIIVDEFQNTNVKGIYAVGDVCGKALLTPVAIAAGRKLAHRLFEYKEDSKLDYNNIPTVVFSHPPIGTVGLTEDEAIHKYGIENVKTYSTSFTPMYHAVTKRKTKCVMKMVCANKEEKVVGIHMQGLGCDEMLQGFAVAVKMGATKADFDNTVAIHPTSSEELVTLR
Method: as §2, §3, §4, §5, §6

T1 sequence (A4HSF7 1-491): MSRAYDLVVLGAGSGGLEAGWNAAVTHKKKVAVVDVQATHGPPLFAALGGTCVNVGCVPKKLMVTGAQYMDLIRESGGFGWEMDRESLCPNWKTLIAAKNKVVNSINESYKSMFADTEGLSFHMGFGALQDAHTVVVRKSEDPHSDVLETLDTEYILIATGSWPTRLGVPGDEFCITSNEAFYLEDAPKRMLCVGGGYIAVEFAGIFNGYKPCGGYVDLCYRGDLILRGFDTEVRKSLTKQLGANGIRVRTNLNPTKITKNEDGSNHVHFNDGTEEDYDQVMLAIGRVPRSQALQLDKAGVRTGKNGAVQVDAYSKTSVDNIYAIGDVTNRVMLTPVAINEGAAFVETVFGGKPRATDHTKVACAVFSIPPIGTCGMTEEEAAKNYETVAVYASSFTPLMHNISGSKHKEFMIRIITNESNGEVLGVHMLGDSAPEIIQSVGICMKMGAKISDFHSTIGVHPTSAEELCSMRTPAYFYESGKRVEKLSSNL

Molecule	CC50 [1] [µM]	EC50 [2] [µM]	LiTR residual activity % ([3]; compound at 10 μM)	SI = human THP-1-derived macrophage CC50/axenic amastigote EC50 [4]	CC50 [4] [µM]	CC50 at 72 h [5] [µM]	EC50 ([2]; Leishmania infantum) [µM]	remaining activity at 100 µM ([3]; compound at 100 μM) [%]	CC50 at 72 h [6] [µM]	solubility in the enzymatic assay [7]	IC50 [3] [µM]	decrease in TR activity ([3]; compound at 100 μM) [%]	LiTR residual activity % ([3]; compound at 100 μM, 100 µM)	IC50 [8] [µM]	SI (ratio of GR IC50/TR IC50) ([8]; hGR versus LiTR)	gain in LiTR IC50 with respect to 5 ([3]; compared to compound 5 (IC50 54.6 μM))	remaining activity at 10 µM ([3]; compound at 10 μM) [%]
4-(3,4-Dichlorobenzyl)-N-(4-fluorophenyl)-N-((5-(phenethylcarbamoyl)furan-2-yl)methyl)piperazine-1-carboxamide [Compound 8]	14.4 ± 1.6	10.3 ± 0.9	94.1 ± 4.9 @10 μM %	1.1	11.7 ± 1.6												
O=C(Nc1ccc(F)cc1)N1CCN(CCCc2ccccc2)CC1 [Compound 4, N-(4-Fluorophenyl)-4-(3-phenylpropyl)piperazine-1-carboxamide]				0.8		12.9 ± 0.9	11.5 ± 2.1	96.7 ± 6.1	9.6 ± 0.71								
O=C(NCCc1ccc(F)cc1)c1ccc(CN(C(=O)N2CCN(CCCc3ccccc3)CC2)c2ccc(F)cc2)o1 [Compound 5, N-((5-((4-Fluorophenethyl)carbamoyl)furan-2-yl)methyl)-N-(4-fluorophenyl)-4-(3-phenylpropyl)piperazine-1-carboxamide]	9.1 ± 0.9	12 ± 1.7		0.8	6.5 ± 0.6	12.9 ± 0.9	11.5 ± 2.1	64.9	9.6 ± 0.71	low solubility	54.6 ± 20.9	35.1	65.4 ± 3.0 @100 μM %	163 ± 58.8	3		
O=C(NCCc1ccc(F)cc1)c1ccc(CN(C(=O)N2CCN(CCCN3c4ccccc4Sc4ccc(Cl)cc43)CC2)c2ccc(F)cc2)o1 [Compound 6, 4-(3-(2-Chloro-10H-phenothiazin-10-yl)propyl)-N-((5-((4-fluorophenethyl)carbamoyl)furan-2-yl)methyl)-N-(4-fluorophenyl)piperazine-1-carboxamide]		13 ± 1.5					12 ± 1.7			low solubility	21.7 ± 4.4			9.6 ± 1.4		more than 2 fold	46.9 ± 18
O=C(O)c1ccc(N(Cc2ccc(C(=O)NCCc3ccc(F)cc3)o2)C(=O)N2CCN(CCCc3ccccc3)CC2)cc1 [Compound 11, 4-(N-((5-((4-Fluorophenethyl)carbamoyl)furan-2-yl)methyl)-4-(3-phenylpropyl)piperazine-1-carboxamido)benzoic Acid]				>2		> 50	25.6 ± 7.4		> 50								74.5 ± 9.3
O=C(NCCc1ccc(F)cc1)c1ccc(CNC(=O)N2CCN(CCCc3ccccc3)CC2)o1 [Compound 12, N-((5-((4-Fluorophenethyl)carbamoyl)furan-2-yl)methyl)-4-(3-phenylpropyl)piperazine-1-carboxamide]				2.7		26.7 ± 4.5	14.1 ± 1.3		37.6 ± 13.8								74.6 ± 9.3
O=C(NCCc1ccc(F)cc1)c1ccc(CNC(=O)N2CCN(Cc3ccc(Cl)c(Cl)c3)CC2)o1 [Compound 13, 4-(3,4-Dichlorobenzyl)-N-((5-((4-fluorophenethyl)carbamoyl)furan-2-yl)methyl)piperazine-1-carboxamide]				1.9		12.6 ± 0.9	11.2 ± 0.7		21 ± 3.1								89.2 ± 4.9
N-((5-((4-Fluorophenethyl)carbamoyl)furan-2-yl)methyl)-N-(4-fluorophenyl)-4-(3-(2-(trifluoromethyl)-10H-phenothiazin-10-yl)propyl)piperazine-1-carboxamide [Compound 7]		13 ± 1.5	70.8 ± 5.9 @10 μM %	1.8	23.4 ± 4.6												
